Patent US7538194B2, “Genes encoding several poly (ADP-ribose) glycohydrolase (PARG) enzymes, the proteins and fragments thereof, and antibodies immunoreactive therewith” (University of Kentucky Research Foundation, priority 1998, dated 2009)

Molecular target: T1, bPARG (construct C, 75-kDa carboxyl-terminal region) expressed in E. coli (Bos taurus, UniProt O02776)
T1 construct: construct C contained only the 75-kDa carboxyl-terminal region of the PARG, which predicted a fusion protein of approximately 79 kDa; made in house; host or cells: E. coli (pTrcHis expression plasmid; supernatant of crude cell extract)
Assay: PARG activity, thin layer chromatography assay measuring release of [32P]ADP-ribose from [32P]ADP-ribose polymers
Format: biochemical, bovine
Conditions: 167 μm inhibitor; extract of E. coli strain containing construct C, 5 h after induction by IPTG (FIG. 6, bar 6 vs bar 5)
Procedure: For expression experiments, bacterial cultures were grown at 37° C. in 1% Bacto-tryptone, 0.5% yeast extract, and 0.5% NaCl to a density of approximately 0.6 A600/ml and were induced with 1 mM isopropyl-β-D-thiogalactoside (IPTG). Cells were-collected by centrifugation, and crude extracts were prepared by sonication (10 A600/ml) in 10 mM sodium phosphate buffer, pH 7.2, 150 mM NaCl, 0.5 mg/ml lysozyme, 0.1 mg/ml phenylmethylsulfonyl fluoride, 1 mM EDTA, 0.7 μg/ml pepstatin A, 0.5 μg/ml leupeptin, and 1 μg/ml aprotinin. Cell extracts were subjected to centrifugation, and the supernatant fraction was used for assay. PARG assay conditions were as described previously (52). Following incubations, portions of reaction mixture were analyzed by thin layer chromatography or subjected to anion exchange HPLC.
Using a thin layer chromatography assay that measures release of [^32P]ADP-ribose from [^32P]ADP-ribose polymers (53), PARG activity was detected in extracts from cells transformed by each of the constructs. […] Reaction mixtures contained approximately 15,000 cpm of [^32P]ADP-ribose polymers, and the cpm shown represent ADP-ribose released from the ADP-ribose polymers. […] No activity was detected in cells transformed with the empty vector, but activity was detectable without induction by IPTG, indicating a leaky lac promoter.

T1 sequence (O02776 322-977 limits assumed): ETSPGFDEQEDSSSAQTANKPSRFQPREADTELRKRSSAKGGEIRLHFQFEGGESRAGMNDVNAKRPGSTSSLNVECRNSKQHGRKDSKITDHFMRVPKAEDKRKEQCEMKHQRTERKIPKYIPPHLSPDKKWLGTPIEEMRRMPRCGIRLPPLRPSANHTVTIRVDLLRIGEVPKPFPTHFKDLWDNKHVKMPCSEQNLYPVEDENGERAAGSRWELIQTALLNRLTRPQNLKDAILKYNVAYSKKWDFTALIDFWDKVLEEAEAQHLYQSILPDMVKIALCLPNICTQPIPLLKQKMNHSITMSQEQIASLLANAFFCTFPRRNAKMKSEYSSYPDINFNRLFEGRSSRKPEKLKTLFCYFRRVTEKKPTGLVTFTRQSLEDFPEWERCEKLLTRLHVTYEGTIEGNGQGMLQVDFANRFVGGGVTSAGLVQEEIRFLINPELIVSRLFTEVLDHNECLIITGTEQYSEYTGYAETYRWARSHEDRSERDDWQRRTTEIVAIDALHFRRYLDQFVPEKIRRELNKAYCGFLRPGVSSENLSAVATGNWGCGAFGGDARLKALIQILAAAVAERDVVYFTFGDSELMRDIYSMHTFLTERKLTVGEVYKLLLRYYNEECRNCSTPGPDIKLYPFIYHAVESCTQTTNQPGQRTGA

Nc1ncnc2c1ncn2[C@@H]1O[C@H](COP(=O)(O)OP(=O)(O)OC[C@H]2NC[C@H](O)[C@@H]2O)[C@@H](O)[C@H]1O [ADP-hydroxymethylpyrrolidine diol]
enzymatic activity (ADP-ribose released from ADP-ribose polymers): strongly inhibited
